These results are taken from patent publication US9499550B2 (BRISTOL-MYERS SQUIBB COMPANY, priority 2012, dated 2016).

Assay [1] deals with HCV genotype 1a (H77 strain) replicon in HUH-7 cells. The assay is described as follows: HCV replicon luciferase reporter assay, genotype 1a. The assay is classed as cell-based. Particulars: Hepatitis C virus, Huh-7, 72 h, HCV genotype 1a replicon luciferase, 3 days incubation, read-out: LE_1a (EC50, range). In outline:
(§1)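 Replicon inhibition for both genotypes was measured as Renilla luciferase signal (EnduRen, 7.5 μM final, 2 h) after 3-day, 37° C exposure of replicon-bearing HUH-7 cells in 4% FCS DMEM, 0.5% DMSO. The 1b construct carries S1179I; the 1a H77 construct carries P1496L and S2204I. Twenty-point, 3-fold dilutions were fitted four-parametrically for EC50, and CC50 was taken from multiplexed Cell Titer-Blue.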
A general note: In antiviral work, replicon cells carry a viral genome segment that copies itself.

In assay [2] the test system is HCV genotype 1b (Con1) replicon in HUH-7 cells. The assay is described as follows: HCV replicon luciferase reporter assay, genotype 1b. The assay is classed as cell-based. Particulars: Hepatitis C virus, Huh-7, 72 h, HCV genotype 1b replicon luciferase, 3 days incubation, read-out: LE_1b (EC50, range). In short, it runs like this:
as §1

Molecules are shown by their SMILES.

In the case of `COc1ccc2c(O[C@@H]3C[C@H]4C(=O)N[C@]5(C(=O)NS(=O)(=O)C6CC6)C[C@H]5/C=C\CC[C@@H](C)C[C@@H](C)[C@H](NC(=O)O[C@@H]5C[C@@H]6C[C@@H]6C5)C(=O)N4C3)nc(-c3ccccc3)cc2c1` [Compound 5188, (1R,3r,5S)-bicyclo[3.1.0]hexan-3-yl((2R,6S,7R,9R,13aS,14aR,16aS,Z)-14a-((cyclopropylsulfonyl)carbamoyl)-2-((6-methoxy-3-phenylisoquinolin-1-yl)oxy)-7,9-dimethyl-5,16-dioxo-1,2,3,5,6,7,8,9,10,11,13a,14,14a,15,16,16a-hexadecahydrocyclopropa[e]pyrrolo[1,2-a][1,4]diazacyclopentadecin-6-yl)carbamate], the EC50 in assay [1] and in assay [2] was < 5.46 nM throughout.
Turning to `COc1ccc2c(O[C@@H]3C[C@H]4C(=O)N[C@]5(C(=O)NS(=O)(=O)C6CC6)C[C@H]5/C=C\CC[C@H](C)C[C@@H](C)[C@H](NC(=O)O[C@@H]5C[C@@H]6C[C@@H]6C5)C(=O)N4C3)nc(-c3ccccc3)cc2c1` [Compound 5189, (1R,3r,5S)-bicyclo[3.1.0]hexan-3-yl((2R,6S,7R,9S,13aS,14aR,16aS,Z)-14a-((cyclopropylsulfonyl)carbamoyl)-2-((6-methoxy-3-phenylisoquinolin-1-yl)oxy)-7,9-dimethyl-5,16-dioxo-1,2,3,5,6,7,8,9,10,11,13a,14,14a,15,16,16a-hexadecahydrocyclopropa[e]pyrrolo[1,2-a][1,4]diazacyclopentadecin-6-yl)carbamate], the EC50 in assay [1] and in assay [2] was < 5.46 nM throughout.
`COc1ccc2c(O[C@@H]3C[C@H]4C(=O)N[C@]5(C(=O)NS(=O)(=O)C6CC6)C[C@H]5/C=C\CC[C@H](C)C[C@@H](C)[C@H](NC(=O)OC(C)(C)C(F)(F)F)C(=O)N4C3)nc(-c3ccccc3)cc2c1` [Compound 5191, 1,1,1-trifluoro-2-methylpropan-2-yl((2R,6S,7R,9S,13aS,14aR,16aS,Z)-14a-((cyclopropylsulfonyl)carbamoyl)-2-((6-methoxy-3-phenylisoquinolin-1-yl)oxy)-7,9-dimethyl-5,16-dioxo-1,2,3,5,6,7,8,9,10,11,13a,14,14a,15,16,16a-hexadecahydrocyclopropa[e]pyrrolo[1,2-a][1,4]diazacyclopentadecin-6-yl)carbamate]: the 50% effective concentration (EC50) in assay [1] and in assay [2] was < 5.46 nM throughout.
In the case of `COc1ccc2c(O[C@@H]3C[C@H]4C(=O)N[C@]5(C(=O)NS(=O)(=O)C6CC6)C[C@H]5/C=C\CC[C@H](C)C[C@@H](C)[C@H](NC(=O)OC(C)(C)C)C(=O)N4C3)nc(-c3ccc(N4CCOCC4)cc3)cc2c1` [Compound 5192, tert-butyl ((2R,6S,7R,9S,13aS,14aR,16aS,Z)-14a-((cyclopropylsulfonyl)carbamoyl)-2-((6-methoxy-3-(4-morpholinophenyl)isoquinolin-1-yl)oxy)-7,9-dimethyl-5,16-dioxo-1,2,3,5,6,7,8,9,10,11,13a,14,14a,15,16,16a-hexadecahydrocyclopropa[e]pyrrolo[1,2-a][1,4]diazacyclopentadecin-6-yl)carbamate], the concentration for a half-maximal effect (EC50) in assay [1] and in assay [2] was < 5.46 nM each time.
For `COc1ccc2c(O[C@@H]3C[C@H]4C(=O)N[C@]5(C(=O)NS(=O)(=O)C6CC6)C[C@H]5/C=C\CC[C@@H](C)C[C@@H](C)[C@H](NC(=O)OC(C)(C)C)C(=O)N4C3)nc(-c3ccc(N4CCOCC4)cc3)cc2c1` [Compound 5193, tert-butyl ((2R,6S,7R,9R,13aS,14aR,16aS,Z)-14a-((cyclopropylsulfonyl)carbamoyl)-2-((6-methoxy-3-(4-morpholinophenyl)isoquinolin-1-yl)oxy)-7,9-dimethyl-5,16-dioxo-1,2,3,5,6,7,8,9,10,11,13a,14,14a,15,16,16a-hexadecahydrocyclopropa[e]pyrrolo[1,2-a][1,4]diazacyclopentadecin-6-yl)carbamate], the EC50 in assay [1] and in assay [2] was < 5.46 nM each time.
As for `COc1ccc2c(O[C@@H]3C[C@H]4C(=O)N[C@]5(C(=O)NS(=O)(=O)C6CC6)C[C@H]5/C=C\CC[C@H](C)C[C@@H](C)[C@H](NC(=O)OC5C[C@@H]6C[C@@H]6C5)C(=O)N4C3)nc(-c3ccc(N4CCOCC4)cc3)cc2c1` (stereo partly drawn) [Compound 5194, (1R,3r,5S)-bicyclo[3.1.0]hexan-3-yl((2R,6S,7R,9S,13aS,14aR,16aS,Z)-14a-((cyclopropylsulfonyl)carbamoyl)-2-((6-methoxy-3-(4-morpholinophenyl)isoquinolin-1-yl)oxy)-7,9-dimethyl-5,16-dioxo-1,2,3,5,6,7,8,9,10,11,13a,14,14a,15,16,16a-hexadecahydrocyclopropa[e]pyrrolo[1,2-a][1,4]diazacyclopentadecin-6-yl)carbamate], the EC50 in assay [1] and in assay [2] was < 5.46 nM throughout.
For `COc1ccc2c(O[C@@H]3C[C@H]4C(=O)N[C@]5(C(=O)NS(=O)(=O)C6CC6)C[C@H]5/C=C\CC[C@@H](C)C[C@@H](C)[C@H](NC(=O)OC5C[C@@H]6C[C@@H]6C5)C(=O)N4C3)nc(-c3ccc(N4CCOCC4)cc3)cc2c1` (stereo partly drawn) [Compound 5195, (1R,3r,5S)-bicyclo[3.1.0]hexan-3-yl((2R,6S,7R,9R,13aS,14aR,16aS,Z)-14a-((cyclopropylsulfonyl)carbamoyl)-2-((6-methoxy-3-(4-morpholinophenyl)isoquinolin-1-yl)oxy)-7,9-dimethyl-5,16-dioxo-1,2,3,5,6,7,8,9,10,11,13a,14,14a,15,16,16a-hexadecahydrocyclopropa[e]pyrrolo[1,2-a][1,4]diazacyclopentadecin-6-yl)carbamate], the concentration giving a half-maximal response (EC50) in assay [1] and in assay [2] was < 5.46 nM each time.
As for `COc1ccc2c(O[C@@H]3C[C@H]4C(=O)N[C@]5(C(=O)NS(=O)(=O)C6CC6)C[C@H]5/C=C\CC[C@H](C)C[C@@H](C)[C@H](NC(=O)OC(C)(C)C(F)(F)F)C(=O)N4C3)nc(-c3ccc(N4CCOCC4)cc3)cc2c1` [Compound 5196, 1,1,1-trifluoro-2-methylpropan-2-yl((2R,6S,7R,9S,13aS,14aR,16aS,Z)-14a-((cyclopropylsulfonyl)carbamoyl)-2-((6-methoxy-3-(4-morpholinophenyl)isoquinolin-1-yl)oxy)-7,9-dimethyl-5,16-dioxo-1,2,3,5,6,7,8,9,10,11,13a,14,14a,15,16,16a-hexadecahydrocyclopropa[e]pyrrolo[1,2-a][1,4]diazacyclopentadecin-6-yl)carbamate], the EC50 in assay [1] and in assay [2] was < 5.46 nM in each case.
As for `COc1ccc2c(O[C@@H]3C[C@H]4C(=O)N[C@]5(C(=O)NS(=O)(=O)C6CC6)C[C@H]5/C=C\CC[C@@H](C)C[C@@H](C)[C@H](NC(=O)OC(C)(C)C(F)(F)F)C(=O)N4C3)nc(-c3ccc(N4CCOCC4)cc3)cc2c1` [Compound 5197, 1,1,1-trifluoro-2-methylpropan-2-yl((2R,6S,7R,9R,13aS,14aR,16aS,Z)-14a-((cyclopropylsulfonyl)carbamoyl)-2-((6-methoxy-3-(4-morpholinophenyl)isoquinolin-1-yl)oxy)-7,9-dimethyl-5,16-dioxo-1,2,3,5,6,7,8,9,10,11,13a,14,14a,15,16,16a-hexadecahydrocyclopropa[e]pyrrolo[1,2-a][1,4]diazacyclopentadecin-6-yl)carbamate], the EC50 in assay [1] and in assay [2] was < 5.46 nM in each case.

The EC50 is the midpoint of the concentration-response curve.
